Measured values as given in EP0673239B1, “AQUEOUS ANTIBIOTIC COMPOSITION FOR VETERINARY USE” (priority 1992, dated 1994).

Test: Study 1: cloxacillin in milk after intramammary infusion of Injector 1A
Type: in vivo, cows
Conditions: single dose, micronised form in an aqueous base
Experimental: A number of studies have been conducted in cows to establish the following : - Study 1: Bioavailability of cloxacillin in bovine colostrum following intramammary infusion of Injector 1A. Study 2: Irritancy of aqueous cloxacillin in the bovine mammary gland.
As a secondary objective plasma levels of Cloxacillin were also measured, in order to assess the extent of systemic absorption.
Eight animals were infused with Injector 1A in all four quarters, and samples of milk were taken at the following intervals post infusion : 0.5, 1, 2, 3, 4, 6, 8, 12, 24, 32, 48, 72, 96, 120 and 144 hours.
Quarter results were recorded for all animals (it was not possible to get samples from two of the quarters due to problems associated with hand milking of animals normally used to being machine milked). […] A peak mean value of 5233.4 mg/L was found at the first sampling interval (0.5 hr) with an approximately exponential decline being noted over the next 72 hours.

SMILES: Cc1onc(-c2ccccc2Cl)c1C(=O)N[C@@H]1C(=O)N2[C@@H]1SC(C)(C)[C@@H]2C(=O)O [cloxacillin benzathine]
- Tmax (bovine, milk, read-out: time to high initial peak of antibiotic): ≤ 30 min
- duration of therapeutic levels: up to 72 hours
